Columns and labels:
Assay in all cases: microbe, parasite or virus in culture
Assay type in all cases: cell-based, HIV-1
[1] = system: gag V370A/ΔT371 virus; conditions: Human immunodeficiency virus 1, MT2, read-out: V370A/ΔT371 EC50
Summary of the method: (§1)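 Multiple-cycle assay in MT-2 cells infected with Renilla luciferase NL4-3 (Gag P373S background) carrying site-directed Gag A364V or V370A/ΔT371 changes, inocula normalized by luciferase signal. 10,000 cells/well, 3-fold compound dilutions, 1% DMSO, 4–5 days at 37°C; yield read as Renilla luciferase.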

[2] = system: A364V site directed mutant virus; conditions: Human immunodeficiency virus 1, MT2, read-out: A364V EC50
Summary of the method: as §1

[3] = system: T332S/V362I/Pr R41G virus; conditions: Human immunodeficiency virus 1, MT2, read-out: T332S/V362I/pr41G EC50
Summary of the method: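 Renilla luciferase NL4-3 reporter virus (Gag P373S background) carrying Gag T332S/V362I plus protease R41G, inoculum normalized by luciferase signal, infected MT-2 cells (10,000/well). Compounds 3-fold diluted, 1% DMSO final. After 4–5 days at 37 °C, virus yield measured as Renilla luciferase activity in a multiple-cycle assay.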

[4] = system: NLRepRlucP373S recombinant wild type (WT) virus; conditions: Human immunodeficiency virus 1, MT2, read-out: WT EC50
Summary of the method: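 MT-2 cells infected with NLRepRlucP373S Renilla luciferase reporter virus (NL4-3, Gag P373S), inocula normalized by luciferase signal; compounds 3-fold serially diluted, 1% DMSO final. Virus yield read by Renilla luciferase after 4-5 days at 37 °C. EC50/EC90 from median effect equation; background = signal at NFV 3 μM.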

Q: `C=C(C)[C@@H]1CC[C@]2(NCCN3CCS(=O)(=O)CC3)CC[C@]3(C)[C@H](CC[C@@H]4[C@@]5(C)CC=C(C6=CCC(CCOc7ccccn7)(C(=O)O)CC6)C(C)(C)[C@@H]5CC[C@]43C)[C@@H]12` (stereo partly drawn) [Example A20, 4-((1R,3aS,5aR,5bR,7aR,11aS,11bR,13aR,13bR)-3a-((2-(1,1-dioxidothiomorpholino)ethyl)amino)-5a,5b,8,8,11a-pentamethyl-1-(prop-1-en-2-yl)-2,3,3a,4,5,5a,5b,6,7,7a,8,11,11a,11b,12,13,13a,13b-octadecahydro-1H-cyclopenta[a]chrysen-9-yl)-1-(2-(pyridin-2-yloxy)ethyl)cyclohex-3-ene-1-carboxylic acid] was tested. Which EC50 [1] did it give?
A: The EC50 was under 50 nM.

Q: What about the EC50 [2] of the same compound?
A: The EC50 was under 50 nM.

Q: And the EC50 [3]?
A: The EC50 was under 50 nM.

Q: And the EC50 [4]?
A: Its EC50 is under 50 nM.

Q: Which results are given for `C=C(C)[C@@H]1CC[C@]2(NCCN3CCS(=O)(=O)CC3)CC[C@]3(C)[C@H](CC[C@@H]4[C@@]5(C)CC=C(C6=CC[C@](COc7ncccc7C(=O)OC)(C(=O)O)CC6)C(C)(C)[C@@H]5CC[C@]43C)[C@@H]12` [Example 27]?
A: EC50 [1]: < 50 nM; EC50 [2]: < 50 nM; EC50 [3]: < 50 nM; EC50 [4]: < 50 nM

Q: For `C=C(C)[C@@H]1CC[C@]2(NCCN3CCS(=O)(=O)CC3)CC[C@]3(C)[C@H](CC[C@@H]4[C@@]5(C)CC=C(C6=CCC(CCOc7cc(OC)ccn7)(C(=O)O)CC6)C(C)(C)[C@@H]5CC[C@]43C)[C@@H]12` (stereo partly drawn) [Example A32, 4-((1R,3aS,5aR,5bR,7aR,11aS,11bR,13aR,13bR)-3a-((2-(1,1-dioxidothiomorpholino)ethyl)amino)-5a,5b,8,8,11a-pentamethyl-1-(prop-1-en-2-yl)-2,3,3a,4,5,5a,5b,6,7,7a,8,11,11a,11b,12,13,13a,13b-octadecahydro-1H-cyclopenta[a]chrysen-9-yl)-1-(2-((4-methoxypyridin-2-yl)oxy)ethyl)cyclohex-3-ene-1-carboxylic acid], which EC50 [1] is on record?
A: Its EC50 is over 50 nM.

Q: What about the EC50 [2] of the same compound?
A: Its EC50 is over 50 nM.

Q: And the EC50 [3]?
A: The EC50 was 419 nM.

Q: And the EC50 [4]?
A: The EC50 was 6 nM.

Q: With `C=C(C)[C@@H]1CC[C@]2(NCCN3CCS(=O)(=O)CC3)CC[C@]3(C)[C@H](CC[C@@H]4[C@@]5(C)CC=C(C6=CC[C@](COc7ncccc7C(N)=O)(C(=O)O)CC6)C(C)(C)[C@@H]5CC[C@]43C)[C@@H]12` [Example 24, (R)-1-(((3-carbamoylpyridin-2-yl)oxy)methyl)-4-((1R,3aS,5aR,5bR,7aR,11aS,11bR,13aR,13bR)-3a-((2-(1,1-dioxidothiomorpholino)ethyl)amino)-5a,5b,8,8,11a-pentamethyl-1-(prop-1-en-2-yl)-2,3,3a,4,5,5a,5b,6,7,7a,8,11,11a,11 b,12,13,13a,13b-octadecahydro-1H-cyclopenta[a]chrysen-9-yl)cyclohex-3-ene-1-carboxylic acid] as the compound, how does the EC50 [1] read?
A: Its EC50 is 12 nM.

Q: What about the EC50 [2] of the same compound?
A: The EC50 was 8 nM.

Q: What about the EC50 [3] of the same compound?
A: Its EC50 is 12 nM.

Q: What about the EC50 [4] of the same compound?
A: Its EC50 is 2 nM.

Q: How did the EC50 [1] turn out when `C=C(C)[C@@H]1CC[C@]2(NCCN3CCS(=O)(=O)CC3)CC[C@]3(C)[C@H](CC[C@@H]4[C@@]5(C)CC=C(C6=CCC(COc7cnnn7C(C)C)(C(=O)O)CC6)C(C)(C)[C@@H]5CC[C@]43C)[C@@H]12` (stereo partly drawn) [Example 17, 4-((1R,3aS,5aR,5bR,7aR,11aS,11bR,13aR,13bR)-3a-((2-(1,1-dioxidothiomorpholino)ethyl)amino)-5a,5b,8,8,11a-pentamethyl-1-(prop-1-en-2-yl)-2,3,3a,4,5,5a,5b,6,7,7a,8,11,11a,11b,12,13,13a,13b-octadecahydro-1H-cyclopenta[a]chrysen-9-yl)-1-(((1-isopropyl-1H-1,2,3-triazol-5-yl)oxy)methyl)cyclohex-3-ene-1-carboxylic acid] was run?
A: Its EC50 is 15 nM.

Q: And the EC50 [2]?
A: The EC50 was over 50 nM.

Q: What about the EC50 [3] of the same compound?
A: The EC50 was 15 nM.

Q: What about the EC50 [4] of the same compound?
A: The EC50 was 3 nM.

From US10421774B2 (priority 2016, dated 2019)
